Test results: ChEMBL document CHEMBL1909046, “DrugMatrix in vitro pharmacology data”

Assays:
Estrogen receptor = biological target: T1, Estrogen receptor (Homo sapiens, UniProt P03372); experiment: biochemical
T1 sequence (P03372 whole entry): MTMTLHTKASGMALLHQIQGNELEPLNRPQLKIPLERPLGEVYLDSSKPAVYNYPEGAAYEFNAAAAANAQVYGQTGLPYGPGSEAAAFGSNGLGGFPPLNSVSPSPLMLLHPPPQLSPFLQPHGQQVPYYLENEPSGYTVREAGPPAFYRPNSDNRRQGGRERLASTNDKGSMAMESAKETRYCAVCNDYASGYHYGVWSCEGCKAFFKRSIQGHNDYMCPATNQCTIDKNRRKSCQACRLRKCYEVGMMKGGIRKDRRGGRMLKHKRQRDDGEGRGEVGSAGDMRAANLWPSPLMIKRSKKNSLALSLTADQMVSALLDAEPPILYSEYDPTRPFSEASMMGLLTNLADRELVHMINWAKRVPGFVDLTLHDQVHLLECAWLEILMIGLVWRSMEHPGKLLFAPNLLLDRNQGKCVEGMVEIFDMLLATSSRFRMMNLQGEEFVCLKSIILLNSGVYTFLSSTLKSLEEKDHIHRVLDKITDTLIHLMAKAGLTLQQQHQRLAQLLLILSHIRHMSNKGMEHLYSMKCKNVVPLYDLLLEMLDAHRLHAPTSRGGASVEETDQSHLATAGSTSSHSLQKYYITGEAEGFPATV

Cytochrome P450 2C9 = Cytochrome P450 2C9 (Homo sapiens, UniProt P11712)
Cytochrome P450 1A2 = biological target: T2, Cytochrome P450 1A2 (Homo sapiens, UniProt P05177)
T2 sequence (P05177 whole entry): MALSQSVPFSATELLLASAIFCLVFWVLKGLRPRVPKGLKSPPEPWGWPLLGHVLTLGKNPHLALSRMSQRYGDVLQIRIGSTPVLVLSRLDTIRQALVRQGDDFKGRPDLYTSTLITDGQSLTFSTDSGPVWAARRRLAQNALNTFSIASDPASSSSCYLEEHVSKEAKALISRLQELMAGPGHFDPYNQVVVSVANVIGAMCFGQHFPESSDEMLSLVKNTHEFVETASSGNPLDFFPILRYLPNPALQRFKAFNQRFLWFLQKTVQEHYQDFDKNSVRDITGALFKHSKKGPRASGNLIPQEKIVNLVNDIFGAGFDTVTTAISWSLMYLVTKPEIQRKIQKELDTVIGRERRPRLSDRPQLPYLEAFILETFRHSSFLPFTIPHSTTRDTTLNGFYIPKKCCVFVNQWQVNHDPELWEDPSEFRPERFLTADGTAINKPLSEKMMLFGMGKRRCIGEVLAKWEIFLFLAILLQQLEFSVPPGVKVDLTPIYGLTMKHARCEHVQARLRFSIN

Cytochrome P450 2C9, sequence (P11712 whole entry): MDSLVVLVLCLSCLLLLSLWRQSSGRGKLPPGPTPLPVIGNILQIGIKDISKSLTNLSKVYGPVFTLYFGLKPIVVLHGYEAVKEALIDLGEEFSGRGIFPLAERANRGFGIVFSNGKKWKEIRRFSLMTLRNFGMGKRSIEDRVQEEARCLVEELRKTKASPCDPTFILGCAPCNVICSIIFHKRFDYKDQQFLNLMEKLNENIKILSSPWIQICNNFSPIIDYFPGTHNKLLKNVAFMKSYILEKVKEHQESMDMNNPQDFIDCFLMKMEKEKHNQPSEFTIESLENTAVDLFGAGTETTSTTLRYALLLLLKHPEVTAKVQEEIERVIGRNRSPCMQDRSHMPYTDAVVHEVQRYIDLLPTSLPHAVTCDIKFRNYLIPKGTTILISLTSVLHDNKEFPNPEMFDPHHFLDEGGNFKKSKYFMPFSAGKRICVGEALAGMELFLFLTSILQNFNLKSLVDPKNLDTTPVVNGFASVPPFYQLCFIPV

SMILES: CC[C@]1(O)CC[C@H]2[C@@H]3CCC4=CCCC[C@@H]4[C@H]3CC[C@@]21C
- IC50 (Estrogen receptor): 1.12 µM
- Ki (Estrogen receptor): 320 nM

SMILES: O=C(c1ccccc1Cl)N1CCC(Cc2ccccc2)CC1
- IC50 (Cytochrome P450 2C9): 2 µM

SMILES: O=C(/C=C/c1ccc(O)c(O)c1)OCCc1ccccc1 [CAFFEIC ACID PHENETHYL ESTER]
- IC50 (Estrogen receptor): 7.91 µM
- Ki (Estrogen receptor): 2260 nM

SMILES: COc1cc(CNC(=O)CCCC/C=C/C(C)C)ccc1O [CAPSAICIN]
- IC50 (Cytochrome P450 1A2): 3 µM

SMILES: C#C[C@]1(O)CC[C@H]2[C@@H]3CCC4=Cc5oncc5C[C@]4(C)[C@H]3CC[C@@]21C [DANAZOL]
- IC50 (Estrogen receptor): 17.8 µM
- Ki (Estrogen receptor): 5080 nM

SMILES: CC(=O)O[C@]1(C(C)=O)CC[C@H]2[C@@H]3C=C(C)C4=CC(=O)CC[C@]4(C)[C@H]3CC[C@@]21C [MEGESTROL ACETATE]
- IC50 (Cytochrome P450 2C9): 10 µM

SMILES: COc1ccc2cc(CCC(C)=O)ccc2c1 [NABUMETONE]
- IC50 (Cytochrome P450 1A2): 5 µM
